According to patent publication US20260102359A1, “COMBINATION TREATMENT OF DERMAL AND TRANSDERMAL FIBROTIC DISEASES, DISORDERS AND ASSOCIATED PAIN AND INFLAMMATION” (ERESINA, LLC, priority 2022, published 2026):
Counter-ions that a name gives are not always drawn.

What follows are compounds tested on hDMFa myofibroblast cells (assay: Myofibroblast cytotoxicity, MTS cell viability assay). Details: 8-12 hours in serum-free inhibitor media, […].

Row | Compound | Compound Myofibroblast Cytotoxicity Activity
1 | NCCC(=O)N[C@@H](Cc1cnc[nH]1)C(=O)O [Cmpd 568, L-Carnosine] | 8
2 | C#C[C@]1(O)CC[C@H]2[C@@H]3CCC4=CCCC[C@@H]4[C@H]3CC[C@@]21C [Cmpd 623, Lynestrenol] | +++++
3 | CN(C)CCC=C1c2ccccc2C(C)(C)c2ccccc21 [Cmpd 647, Melitracen hydrochloride] | +++++
4 | CC(=O)Oc1cc(C)c(OC(C)=O)c2ccccc12 [Cmpd 650, Menadiol Diacetate] | +++++
5 | CCCCCCCCN=c1ccn(CCCCCCCCCCn2ccc(=NCCCCCCCC)cc2)cc1 [Cmpd 730, Octenidine (dihydrochloride)] | +++++
6 | CC1(C)CC[C@]2(C(=O)O)CC[C@]3(C)C(=CC[C@@H]4[C@@]5(C)CC[C@H](O)C(C)(C)[C@@H]5CC[C@]43C)[C@@H]2C1 [Cmpd 732, Oleanolic acid] | +++++
7 | CCCCCCCCCCCCCCCCCCOP(=O)([O-])OC1CC[N+](C)(C)CC1 [Cmpd 771, Perifosine] | +++++
8 | O=C1[C@H]2CCCC[C@H]2C(=O)N1CCCCN1CCN(c2nsc3ccccc23)CC1 [Cmpd 772, Perospirone hydrochloride] | +++++
9 | Nc1ccc2cc3ccc(N)cc3nc2c1.Nc1ccc2cc3ccc(N)cc3nc2c1.O=S(=O)(O)O [Cmpd 798, Proflavine Hemisulfate] | +++++

Same assay, conditions: 8-12 hours in serum-free inhibitor media, […], HCl

Row | Compound | Compound Myofibroblast Cytotoxicity Activity
10 | Cl.NCCCC[C@H](N)C(=O)O [Cmpd 597, L-Lysine HCl] | +

Same assay, conditions: MTS viability, 8-12 hours incubation in serum-free inhibitor media, normalized to negative control

Row | Compound | Compound Myofibroblast Cytotoxicity Activity
11 | CCCCCCCCCCCC[N+](C)(C)CCOc1ccccc1 [Cmpd 377, Domiphen Bromide] | +++++
12 | CO[C@H]1C[C@H](O[C@H]2[C@H](C)O[C@@H](O[C@@H]3/C(C)=C/C[C@@H]4C[C@@H](C[C@]5(C=C[C@H](C)[C@@H](C6CCCCC6)O5)O4)OC(=O)[C@@H]4C=C(C)[C@@H](O)[C@H]5OC/C(=C\C=C\[C@@H]3C)[C@]54O)C[C@@H]2OC)O[C@@H](C)[C@@H]1O [Cmpd 379, Doramectin] | +++++
13 | CC(C)(C)c1cc(C(C)(C)C)c(NC(=O)c2c[nH]c3ccccc3c2=O)cc1O [Cmpd 545, Ivacaftor (VX-770)] | +++++

Same assay, conditions: serum-free media with inhibitor 8-12 hours, MTS cell viability, inhibition normalized as percentage of negative control

Row | Compound | Compound Myofibroblast Cytotoxicity Activity
14 | CC1=C(C(=O)OC(C)C)C(c2cccc([N+](=O)[O-])c2)C(C(=O)OC2CN(C(c3ccccc3)c3ccccc3)C2)=C(N)N1 (stereo not drawn) [Cmpd 148, Azelnidipine] | +++++
15 | COC(=O)OCOc1c2n(ccc1=O)N([C@@H]1c3ccccc3SCc3c1ccc(F)c3F)[C@@H]1COCCN1C2=O [Cmpd 155, Baloxavir marboxil] | +++++
16 | Cc1ccc([C@@H]2O[C@H](CO)[C@@H](O)[C@H](O)[C@H]2O)cc1Cc1ccc(-c2ccc(F)cc2)s1 [Cmpd 208, Canagliflozin] | +++++
17 | CCCCCCCCCCCCCCCC[N+](C)(C)C.[Br-] [Cmpd 242, Cetrimonium Bromide (CTAB)] | +++++
18 | COc1ccc2c(c[n+](C)c3c4cc5c(cc4ccc23)OCO5)c1OC.[Cl-] [Cmpd 244, Chelerythrine Chloride] | +++++

Same assay, conditions: serum-free media with inhibitor 8-12 hours, MTS viability normalized to negative control

Row | Compound | Compound Myofibroblast Cytotoxicity Activity
19 | COc1ccc2c(O[C@@H]3C[C@H]4C(=O)N[C@]5(C(=O)NS(=O)(=O)C6CC6)C[C@H]5/C=C\CCCCN(C)C(=O)[C@@H]4C3)cc(-c3nc(C(C)C)cs3)nc2c1C [Cmpd 863, Simeprevir] | +++++
20 | CN[C@@H]1C[C@H]2O[C@@](C)([C@@H]1OC)n1c3ccccc3c3c4c(c5c6ccccc6n2c5c31)C(=O)NC4 [Cmpd 888, Staurosporine] | +++++
21 | Cc1ccc(Sc2ccccc2N2CCNCC2)c(C)c1 [Cmpd 1011, Vortioxetine] | +++++
22 | Br.Cc1ccc(Sc2ccccc2N2CCNCC2)c(C)c1 [Cmpd 1012, Vortioxetine (Lu AA21004) HBr] | +++++
23 | Sericin Gel [Cmpd 859] | +
24 | Sodium Aescinate [Cmpd 869] | +++++
